Assay results from PubChem BioAssay (NCI).
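Tested at 5 concentrations; 48 h exposure; 96-well plates; endpoints linearly interpolated, else capped at highest concentration. TGI: concentration producing complete growth inhibition.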

Legend:
Assay in all cases: inhibition of tumour cell growth, NCI panel, 48 h
[1] = system: HCT-116 colon
[2] = system: SK-MEL-28 melanoma
[3] = system: UO-31 renal
[4] = system: NCI-H522 lung
[5] = system: EKVX NSCLC
[6] = system: HL-60(TB) leukemia
[7] = system: KM12 colon

Structure (SMILES)	TGI [1]	TGI [2]	TGI [3]	TGI [4]	TGI [5]	TGI [6]	TGI [7]
COc1cc2c(cc1OC)-c1c(cc(OC)c(OC)c1OC)C2=O	> 100 µM	> 100 µM	> 100 µM	> 100 µM	> 100 µM	> 100 µM	> 100 µM
CC(C)OCN1COCN=C1NC#N	> 100 µM	> 100 µM	> 100 µM	> 100 µM	> 100 µM	> 100 µM	> 100 µM
O=C1CCC(=O)c2cc(Br)ccc2N1	> 55 µM	> 100 µM	> 100 µM	> 100 µM	> 100 µM	> 100 µM	> 100 µM
O=C(Nc1cc(C(F)(F)F)ccc1Cl)C(=O)C(C(=O)c1ccc2ccccc2c1)C1OC(=O)c2ccccc21 (configuration not stated)	30.2 µM	13.1 µM	28.2 µM	20 µM	34.8 µM	37.3 µM	27.4 µM
COc1ccc(C(=O)C(C(=O)C(=O)Nc2nc3ccc(OC)cc3s2)c2ccc(OC)cc2)cc1 (configuration not stated)	–	> 100 µM	> 100 µM	–	> 100 µM	> 100 µM	> 100 µM
CC(NC1CCC[C@H]1O)c1ccccc1 (mixture of isomers)	> 100 µM	> 100 µM	> 100 µM	> 100 µM	> 100 µM	> 100 µM	> 100 µM
C=C(C)C1CC[C@]2(C(=O)O)CCC3(C)[C@H](CCC4[C@@]5(C)CC[C@H](OC6OC(CO)C(O)C6OC6OC(C)C(O)C(O)C6O)[C@@](C)(CO)C5CC[C@]43C)C12 (some centres not stated)	> 100 µM	> 100 µM	> 100 µM	> 100 µM	> 100 µM	> 100 µM	> 100 µM
COC(=O)C1CCc2c(OC)ccc(OC)c2C1=O (configuration not stated)	> 100 µM	> 100 µM	> 100 µM	> 100 µM	> 100 µM	> 100 µM	> 100 µM
COc1cc(C2C(C(=O)O)=C(C)Oc3cc4c(cc32)OCO4)cc(OC)c1OC (configuration not stated)	> 100 µM	> 100 µM	> 100 µM	–	> 100 µM	50.8 µM	–
CC(=O)Nc1ccc(/C=c2\sc3nnc(/C=C/c4ccccc4)n3c2=O)cc1	> 50 µM	> 50 µM	> 50 µM	> 50 µM	> 50 µM	> 50 µM	> 50 µM
COCCN1C2=CCCCC2=Nc2c(N)nc(N)nc21	> 100 µM	> 100 µM	> 100 µM	> 100 µM	–	> 100 µM	> 100 µM
